In PubChem BioAssay (NCI):
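Method: 48-hour compound exposure of cells in 96-well plates, five concentrations, linear interpolation of endpoints. Abbreviation: GI50, concentration required for 50% inhibition of growth. TGI is the concentration that stops growth completely.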

Legend:
Test in all cases: inhibition of tumour cell growth, NCI panel, 48 h
MDA-MB-231 breast = tested on: MDA-MB-231 breast
CAKI-1 renal = tested on: CAKI-1 renal
MCF7 breast = tested on: MCF7 breast
NCI-H226 lung = tested on: NCI-H226 lung
HOP-62 NSCLC = tested on: HOP-62 NSCLC
KM20L2 colon = tested on: KM20L2 colon
UACC-257 melanoma = tested on: UACC-257 melanoma
HOP-92 NSCLC = tested on: HOP-92 NSCLC

SMILES | TGI (MDA-MB-231 breast) [µM] | TGI (CAKI-1 renal) [µM] | TGI (MCF7 breast) [µM] | TGI (NCI-H226 lung) [µM] | TGI (HOP-62 NSCLC) [µM] | GI50 (KM20L2 colon) [µM] | TGI (UACC-257 melanoma) [µM] | GI50 (HOP-92 NSCLC) [µM] | TGI (HOP-92 NSCLC) [µM]
CCN(CC)CCNCc1cc(Cl)cc2c1OCOC2 | > 10 | > 10 | > 10 | > 10 | > 10 | – | – | – | –
COc1cccc(N2C(=O)C3c4[nH]c5ccc(C)cc5c4C4CCC(C(C)(C)C)CC4C3C2=O)c1 (centres undefined) | > 10 | > 10 | > 10 | 8.78 | > 10 | – | – | – | –
O=C(N/N=C/c1cc(Cl)cc(Cl)c1O)c1ccccc1O | – | – | – | – | – | 4.85 | 14.6 | 3.69 | 19.7
